These results are taken from ChEMBL document CHEMBL3507680, “University of Dundee, Gates Library screen for HepG2 cell viability”.

The series is described as follows: Human HepG2 cell viability assay in 384 well format. Type of series: toxicity, cell-based. More on the design: dose 125 nL, time 70.5 hour; cytotoxicity at 70.5 h: concentration not given beside the values. The settings on record: HepG2 cells, read-out: Inhibition.

Regarding `c1cnn(CC2CCCN2Cc2ccc(-n3cccn3)cc2)c1` (centres undefined), the cytotoxicity at 70.5 h is -8.68%.
To `CC(Cn1ccnc1)NC(=O)N1CCCN(Cc2cccs2)CC1` (centres undefined) belongs -14%; to `Cc1nc(C2CCCN2C(=O)CCn2cncn2)no1` (centres undefined), -3.86%.
In the case of `CC1CCN(Cc2ccc(CNC(=O)c3ccn(C)c(=O)c3)cc2)CC1`, the cytotoxicity at 70.5 h is -9.84%.
To `CCOc1ncccc1CNC(=O)Nc1ccc(CC)cc1` belongs -7.83%; to `CN(C)c1ncccc1CNS(=O)(=O)c1ccccc1Cl`, -4.36%.
Take `CC(=O)NC1CCCN(C(=O)NCCOc2ccc3c(c2)OCO3)C1` (centres undefined): the cytotoxicity at 70.5 h is -10.3%.
As to `CC(Cn1ccnc1)NC(=O)N1CCN(Cc2cccs2)CC1` (centres undefined), the cytotoxicity at 70.5 h turned out to be 13.9%.
The result for `CN(C)c1ncccc1CNS(=O)(=O)c1c(F)cccc1F` reads -8.75%; that for `Cn1ccc(C(=O)NCc2ccc(CN3CCCC3)cc2)cc1=O`, -12.4%; that for `Cc1nn(C)c(N(C)C)c1CNC(C)COc1ccc(F)cc1` (centres undefined), -4.85%.
To `CC(=O)NCCCC(=O)NC(C)c1nnc2n1CCC2` (centres undefined) belongs -11.1%.
The result for `CN(C)c1ccc(NC(=O)NCc2cccnc2N(C)C)cn1` reads -8.32%; that for `c1ccc(-n2ccc(CN3CCCC3Cn3cncn3)n2)cc1` (centres undefined), -3.62%; that for `COCc1nc(C(=O)N2CCCC(n3ccnc3)C2)cs1` (centres undefined), -10%.
With `CC(C)c1nc(C2CCCN2C(=O)CCn2cncn2)no1` (centres undefined), the cytotoxicity at 70.5 h is -7.37%.
The result for `CCn1nc2c(cc1=O)CN(CC(=O)Nc1nncs1)CC2` reads -10.2%; that for `CCc1n[nH]c(C2CN(C(=O)c3ccc(Cl)cn3)CCO2)n1` (centres undefined), -8.84%.
To `O=C(c1cccc(F)c1)N1CCCN(Cc2cscn2)CC1` belongs 21.5%; to `Cc1cnn(CCNCc2nnc(-c3occc3C)o2)c1`, -5.91%; to `CCn1cc(NC(=O)NCc2ccc(CO)c(F)c2)cn1`, -7.1%.
For `CCn1cc(NC(=O)NCCc2ccc3c(c2)OCO3)cn1`, the cytotoxicity at 70.5 h was -10.2%.
`COc1c(CNC2CCc3ccccc32)c(C)nn1C` (centres undefined): the cytotoxicity at 70.5 h is -10.5%.
As to `CC(C)CCN(C(=O)c1ccc(-n2ncc(C#N)c2N)cc1)C1CC1`, the cytotoxicity at 70.5 h was -6.84%.
Turning to `COc1ccc(Cl)cc1CC(=O)N1CCN(CC(C)(C)O)CC1`, the cytotoxicity at 70.5 h is -3.48%.
To `CC(C)(C)c1cc(NC(=O)CN2CCC(N3CCNC3=O)CC2)on1` belongs 17%; to `O=C(NCCC(=O)N1CCCCCCC1)c1ccoc1`, -1.22%.
Take `CC(C)c1nc(CN(C)C2CCN(CCc3ccncc3)C2)no1` (centres undefined): the cytotoxicity at 70.5 h is -2.44%.
Consider `COCc1ccc(C(=O)N2CCCN(Cc3cscn3)CC2)cc1`, for which the cytotoxicity at 70.5 h was -6.01%.
For `CCc1nc(CN(C)C2CCN(CCCOc3ccccc3)C2)no1` (centres undefined), the cytotoxicity at 70.5 h is 9.63%.
To `Cc1cnc(CN(C)C2CCN(Cc3nnc(C4CC4)o3)C2)o1` (centres undefined) belongs -4.32%.
On to `Cc1cc(C)n(CC2CN(Cc3noc(C4CC4)n3)CCO2)n1` (centres undefined), for which the cytotoxicity at 70.5 h is -6.69%.
To `O=C(NCCOCC(F)(F)F)c1ccc(-c2ccco2)[nH]c1=O` belongs -9.67%.
For the compound `Cc1cc(C)n(CC2CCCN2C(=O)Cc2c(C)noc2C)n1` (centres undefined), the cytotoxicity at 70.5 h is 7.13%.
Regarding `CCc1nccn1C1CCCN(C(=O)c2cc3nc(C)ccc3o2)C1` (centres undefined), the cytotoxicity at 70.5 h is -2.05%.
The result for `CCc1nccn1C1CCCN(C(=O)c2cnn(C)c2C2CC2)C1` (centres undefined) reads -0.779%; that for `CNS(=O)(=O)c1cccc(CNc2cc(C(F)(F)F)ccn2)c1`, -0.978%; that for `COc1ccc(-n2ccc(C(=O)NCCN3CCCCC3C)n2)cc1` (centres undefined), 7.59%.
In the case of `Cc1ccccc1CN1CCCN(C2CCOC2=O)CC1` (centres undefined), the cytotoxicity at 70.5 h was 3.44%.
For the compound `c1csc(-c2noc(CCCN3CCCC3Cn3cccn3)n2)c1` (centres undefined), the cytotoxicity at 70.5 h is -8.63%.
The result for `O=C(c1ccc2c(c1)CCCC2)N1CCOCC1c1ncon1` (centres undefined) reads 2.82%; that for `COc1cc(CNCc2c(C)nn(C)c2N(C)C)ccc1C`, -3.16%; that for `Cc1nccn1C1CCCN(C(=O)C2=NN(C)C(=O)CC2)C1` (centres undefined), 9.33%.
The result for `O=C(COCC1CC1)N1CCCC(n2cncn2)C1` (centres undefined) reads -9.93%.
To `Cc1nc(C)n(C2CCCN(C(=O)c3csnn3)C2)n1` (centres undefined) belongs -11.1%; to `COc1ccc(C(=O)N2CCCC(C)C2)cc1F` (centres undefined), -2.9%.
For `Cc1ccc(N2CCCC(NCc3cccc4c3OCCO4)C2)nn1` (centres undefined), the cytotoxicity at 70.5 h was -4.41%.
To `CCOCC(O)CN1CCN(C(=O)C2CC2)CC1` (centres undefined) belongs -13.7%; to `Cc1cc(C)n(C2CCCN(C(=O)C3=NN(C)C(=O)CC3)C2)n1` (centres undefined), -9.81%; to `COc1cccc(COCC(=O)N2CCCC(c3cc(C)[nH]n3)C2)c1` (centres undefined), -14.7%.
In the case of `Cn1cc(N2CCCC(NCc3cccc4c3OCCCO4)C2)cn1` (centres undefined), the cytotoxicity at 70.5 h was -14.6%.
As to `CCc1nc(CNC(C)Cn2cccn2)cs1` (centres undefined), the cytotoxicity at 70.5 h is -11.9%.
To `Cc1cnn(C2CCCN(C(=O)C3=NN(C)C(=O)CC3)C2)c1` (centres undefined) belongs 22.6%.
To `COc1ccc(C(=O)N2CCCC(CNS(C)(=O)=O)C2)cc1F` (centres undefined) belongs -10.9%; to `O=C(NCCNc1ncccn1)N1CCN(Cc2cccnc2)CC1`, 21.2%.
To `Cn1ncc2c1CCCC2NCc1cnc(-c2ccccc2)nc1` (centres undefined) belongs -0.439%.
For `Cc1ccc(-c2ncc(C(=O)NCCS(N)(=O)=O)s2)c(C)c1`, the cytotoxicity at 70.5 h is -1.3%.
The result for `Cc1ccc(-c2ncc(C(=O)NCCNc3ncccn3)s2)c(C)c1` reads 3.03%; that for `CCN1CCN(CC(O)c2ccc(OC(F)(F)F)cc2)CC1` (centres undefined), 28.9%.
To `CC(C)Oc1ncccc1CNC(=O)c1cc[nH]n1` belongs -7.86%; to `OC(CN1CCOCC1)c1ccc(OC(F)(F)F)cc1` (centres undefined), -9.34%; to `Cc1cnn(CC2CN(Cc3nc(-c4ccoc4)no3)CCO2)c1` (centres undefined), -18.2%.
The result for `N#Cc1ccccc1OCCN1CCCCC1Cn1cncn1` (centres undefined) reads -7.56%; that for `COc1cc(C)nc(N2CCN(C(=O)c3ccccc3C)CC2)n1`, 43.9%.
On to `COc1ncccc1C(=O)N1CCCC(c2cc(C)[nH]n2)C1` (centres undefined), for which the cytotoxicity at 70.5 h was -2.72%.
Regarding `CC(Cn1cccn1)NCc1csc(-c2ccccc2F)n1` (centres undefined), the cytotoxicity at 70.5 h is -15.5%.
To `CC(NC(=O)CN(C)S(C)(=O)=O)c1nnc2n1CCCCC2` (centres undefined) belongs 48.1%.
For the compound `CC(c1cccc(S(N)(=O)=O)c1)N(C)CCc1ccccc1` (centres undefined), the cytotoxicity at 70.5 h came out at 11.5%.
`CSc1ccc(Cl)c(C(=O)N2CCCC(CNS(C)(=O)=O)C2)c1` (centres undefined): the cytotoxicity at 70.5 h amounted to 17.2%.
To `O=C(NCC(=O)N1CCCCC1)c1ccoc1` belongs -7.84%.
To `CN(C)c1ncccc1CNS(=O)(=O)c1ccccc1F` belongs -27.7%.
Turning to `O=C(NCCn1ccnc1)N1CCN(Cc2cccs2)CC1`, the cytotoxicity at 70.5 h was -17.2%.
In the case of `Cc1ccc(C(=O)NCCNc2ncccc2C#N)c(=O)[nH]1`, the cytotoxicity at 70.5 h is 20.6%.
With `COc1c(CNC2CCSc3ccc(F)cc32)c(C)nn1C` (centres undefined), the cytotoxicity at 70.5 h was determined as 25.9%.
